Laboratory results from patent US20110065582A1, “ENVIRONMENTALLY FRIENDLY SLOW-RELEASE PESTICIDE FORMULATIONS” (Consejo Superior De Investigaciones Cientificas, priority 2008, published 2011).

Tests used:
[1] = Speciation of SFZ in solution; type: physicochemical
Excerpt: A primordial factor in the encapsulation of acidic molecules is the pH of the solution. […] However, small anionic species can also permeabilise the bilayers of PC. In fact, SFZ adsorption at pH 7.0 was 4 times higher than the amount of neutral species in solution.

[2] = Adsorption of sulfentrazone in PC vesicle-montmorillonite suspension as a function of buffer pH; type: physicochemical; details: 5 g/L montmorillonite, 6 mM PC, 2.6 mM SFZ
Description: The formulations of PC with different herbicides were prepared by dissolving various quantities of the herbicide in question in a solution of 6 mM PC through sonication, and subsequent adding of montmorillonite. The herbicides employed were alachlor (hydrophobic in nature), atrazine (of basic nature) and sulfentrazone (of acid nature). […] The added amounts of the herbicides were 1.5-14 mM for alachlor, 1.8-2.4 mM for atrazine and 1.3-5.7 mM for sulfentrazone. The clay concentration was 1.6, 5 or 10 g/L. Following agitation during 24 h the suspensions were centrifuged at 20000 g during 10 min, the remaining herbicide in the supernatants was analysed, and the precipitates were lyophilised giving rise to the formulations. The herbicides were analysed by HPLC (Shimadzu Model 10A) fitted with a PDA detector. The reverse phase column was a Kromasil 100 C18 of 15 cm. The flow speed was 1.0 mL min−1. […]
The final concentrations of the formulations and the percentage in weight of the herbicides in the formulation are shown in Table 2. […] The active ingredient content was determined by means of sonication of 5 mg of each formulation in 20 ml of methanol. The suspensions were centrifuged and the herbicide in the supernatants was analysed. […]

[3] = 96 h of irradiation; cited from earlier work

Structure (SMILES)	speciation in solution: anions ([1]; pH 5.0) [%]	speciation in solution: neutral molecules ([1]; pH 5.0) [%]	speciation in solution: anionic species ([1]; pH 7.0) [%]	speciation in solution: neutrals ([1]; pH 7.0) [%]	adsorption of SFZ ([2]; buffer of pH 5.0) [%]	adsorption of SFZ ([2]; buffer of pH 7.0 Trizma-HCl 1 M) [%]	activity retained following irradiation [3] [%]
Cc1nn(-c2cc(NS(C)(=O)=O)c(Cl)cc2Cl)c(=O)n1C(F)F [SFZ, sulfentrazone]	2.7	97.3	73.4	26.6	69.5	11.8	–
CCCN(CCC)c1c([N+](=O)[O-])cc(C(F)(F)F)cc1[N+](=O)[O-] [free trifluralin, trifluralin]	–	–	–	–	–	–	30
